Tests used:
IFN-β = IFN-β ELISA, 293T cells stably expressing UL37 infected with Sendai virus; format: cell-based, human; conditions: UL37 expression, SeV infection, 16 hpi
Method: Commercial cytokine ELISA kits used in this study include: human IFN-β (PBL Assay Science) and human RANTES (R&D Systems). Cytokine levels in the supernatant from cultured cells were assessed according to manufacturer's instruction. Absorbance was determined with FLUOstar Omega (BMG Labtech.).

[1] = system: interferon-stimulating DNA (ISD); assay: Precipitation of biotinylated interferon-stimulating DNA (ISD) with cGAS; format: binding
cGAS [2] = assay: cGAMP reporter assay (THP1-Lucia); format: cell-based, human; conditions: THP-1 cells transfected with HT-DNA (HT-DNA alone approximately 60 ng)
Method: THP-1 Cells were transfected with HT-DNA (2 μg/ml) or infected with HSV-1 virus for 6 h. Cell extracts were prepared by heating at 95° C. for 5 min to denature most proteins, and then the precipitated proteins were removed by centrifugation. The supernatant containing cGAMP was delivered to digitonin-permeabilized (2.5 μg/ml for 30 min) THP1-Lucia cells at 37° C. for 30 min. The cells were cultured for another 20 h before Lucia reporter activity was measured according to the manufacturer's instruction (InvivoGen). Pure cGAMP was diluted and used as standard for the assay.

cGAS [3] = assay: Real-time PCR in THP-1 cells stably expressing UL37, transfected with HT-DNA; format: cell-based, human
Method: THP-1 or L929 cells were infected with HSV-1 (MOI=5) or stimulated with HT-DNA (2 μg/ml) or cGAMP (2 μg/ml) for 6 h unless specifically indicated otherwise. Cells were washed with cold PBS, and total RNA was extracted by using TRIzol Reagent (Invitrogen). RNA was digested with DNase I (New England Biolabs) to remove genomic DNA. One microgram of total RNA was used for reverse transcription with PrimeScript Reverse Transcriptase (Clontech) according to the manufacturer's instruction. Approximately 0.5% of the cDNA was used as template in each quantitative real-time PCR (qRT-PCR) reaction with SYBR master mix (Applied biosystems).
Lentivirus production was carried out in 293T cells as described previously. THP-1 or L929 cells were infected with lentivirus containing UL37 or UL37 C819S mutant. After 36 h, THP-1 cells were selected with puromycin at 1 μg/ml and L929 cells were selected with puromycin at 5 μg/ml.

RIG-I = molecular target: T1, RIG-I (Homo sapiens, UniProt O95786, D580E); assay: In vitro deamidation assay (RIG-I); format: biochemical; conditions: protein purified from E. coli, 2-DGE
T1 construct: made in house; host or cells: GST-RIG-I: transfected 293T cells; UL37: E. coli
T1 sequence (O95786 1-925 D580E): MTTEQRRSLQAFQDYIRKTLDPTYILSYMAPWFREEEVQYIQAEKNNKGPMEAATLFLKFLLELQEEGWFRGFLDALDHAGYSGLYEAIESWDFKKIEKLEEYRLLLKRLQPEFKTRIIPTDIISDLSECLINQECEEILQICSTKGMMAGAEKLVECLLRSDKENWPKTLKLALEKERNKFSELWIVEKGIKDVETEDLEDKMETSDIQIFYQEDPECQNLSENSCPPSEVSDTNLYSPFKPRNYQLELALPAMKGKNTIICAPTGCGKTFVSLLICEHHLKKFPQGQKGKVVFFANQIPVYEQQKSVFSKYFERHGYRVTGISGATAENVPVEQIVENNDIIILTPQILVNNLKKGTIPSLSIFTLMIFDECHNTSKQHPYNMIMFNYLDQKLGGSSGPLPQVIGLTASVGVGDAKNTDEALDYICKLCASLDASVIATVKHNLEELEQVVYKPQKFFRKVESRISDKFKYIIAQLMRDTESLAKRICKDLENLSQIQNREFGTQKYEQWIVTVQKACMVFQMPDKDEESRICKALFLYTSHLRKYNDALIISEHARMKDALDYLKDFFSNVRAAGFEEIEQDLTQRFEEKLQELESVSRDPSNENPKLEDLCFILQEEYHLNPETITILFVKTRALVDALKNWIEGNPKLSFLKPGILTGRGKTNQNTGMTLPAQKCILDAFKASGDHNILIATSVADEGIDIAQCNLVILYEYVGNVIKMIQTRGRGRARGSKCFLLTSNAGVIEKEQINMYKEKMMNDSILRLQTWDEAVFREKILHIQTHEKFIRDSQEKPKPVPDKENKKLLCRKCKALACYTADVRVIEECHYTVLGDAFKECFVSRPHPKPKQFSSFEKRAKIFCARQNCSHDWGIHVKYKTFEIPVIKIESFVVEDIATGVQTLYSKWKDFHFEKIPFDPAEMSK
Method: GST-RIG-I was purified from transfected 293T cells to homogeneity as determined by silver staining. In vitro on-column deamidation of RIG-I was performed as previously reported (He et al., 2015). Briefly, ˜0.2 μg of His-tagged UL37/UL37 (571-1123) expressed and purified from E. coli, and 0.6 μg of GST-RIG-I (bound to glutathione-conjugated agarose) were added to a total volume of 30 μl. The reaction was carried out at 30° C. for 45 min in deamidation buffer (50 mM Tris-HCl, pH 7.5, 100 mM NaCl, 5 mM MgCl2). Protein-bound GST beads were washed with deamidation buffer and GST-RIG-I was eluted with rehydration buffer (6 M Urea, 2 M Thio-urea, 2% CHAPS, 0.5% IPG Buffer, 0.002% bromophenol blue) at room temperature. Samples were then analyzed by two-dimensional gel electrophoresis and immunoblotting.

cGAS [4] = assay: In vitro deamidation assay (cGAS); format: biochemical, mouse; conditions: purified proteins
Method: The in vitro deamidation assay was performed as previously described. Briefly, 5 μg of purified MBP-mcGAS or MBP-mcGAS-DDEE mutant on amylose resin was incubated with 0.5 gig of purified FLAG-UL37 or FLAG-UL37C819S at 30° C. for 45 min in deamidation buffer (50 mM Tris-HCl [pH 7.5], 100 mM NaCl, and 5 mM MgCl2). Then the reaction was stopped by adding rehydration buffer and the eluted proteins were analyzed by two-dimensional gel electrophoresis.

cGAS [5] = molecular target: T2, cGAS (Mus musculus, UniProt Q8C6L5); assay: In vitro cGAMP activity assay; format: biochemical; conditions: in vitro cGAMP reaction
T2 construct: Purified mcGAS(141-507) was deamidated by purified FLAG-UL37 in vitro; made in house; host or cells: E. coli BL21 (DE3)
T2 sequence (Q8C6L5 141-507): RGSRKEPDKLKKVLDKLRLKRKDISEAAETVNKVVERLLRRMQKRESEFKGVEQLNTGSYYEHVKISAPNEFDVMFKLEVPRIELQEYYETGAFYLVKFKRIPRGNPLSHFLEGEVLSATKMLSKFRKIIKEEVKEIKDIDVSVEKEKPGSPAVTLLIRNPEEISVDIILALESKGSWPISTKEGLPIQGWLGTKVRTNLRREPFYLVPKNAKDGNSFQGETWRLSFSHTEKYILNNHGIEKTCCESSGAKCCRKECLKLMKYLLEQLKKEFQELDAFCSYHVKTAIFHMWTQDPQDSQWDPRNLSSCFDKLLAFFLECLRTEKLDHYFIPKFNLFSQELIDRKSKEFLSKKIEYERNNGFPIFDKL
Method: 1 μM of MBP-cGAS or mutant proteins was mixed with 100 μM ATP and 100 μM GTP and 10 μCi [α-P32]-ATP in reaction buffer (20 mM Tris-Cl [pH 7.5], 150 mM NaCl, 5 mM MgCl2, 1 mM dithiothreitol [DTT]). After 2 h of incubation at 37° C., 2 μl of reaction solution was spotted onto PEI-Cellulose thin layer chromatography plate (Sigma). Reaction products were resolved with running buffer (1 M (NH4)2SO4, 1.5 M KH2PO4, pH 3.8). The TLC plates were dried and scanned with Phosphoimager (Fuji).

cGAS [6] = assay: Tandem mass spectrometry quantification of cGAS deamidation; format: biochemical, mouse; conditions: UL37 expression; N196, N377, Q436, Q439
Method: Purified mcGAS(141-507) was deamidated by purified FLAG-UL37 in vitro. Then the samples were resolved with SDS-PAGE and the mcGAS bands were excised and applied to LC/MS/MS analysis. The analysis of samples was carried out using a Thermo Scientific Q-Exactive hybrid Quadrupole-Orbitrap Mass Spectrometer and a Thermo Dionex UltiMate 3000 RSLCnano System. Peptide mixtures from each sample were loaded onto a peptide trap cartridge at a flow rate of 5 μL/min. The trapped peptides were eluted onto a reversed-phase PicoFrit column (New Objective, Woburn, Mass.) using a linear gradient of acetonitrile (3-36%) in 0.1% formic acid. The elution duration was 120 min at a flow rate of 0.3 μl/min. Eluted peptides from the PicoFrit column were ionized and sprayed into the mass spectrometer, using a Nanospray Flex Ion Source ES071 (Thermo) under the following settings: spray voltage, 2.0 kV, Capillary temperature, 250° C. Other settings were empirically determined. Raw data files were searched against mouse protein sequence database obtained from NCBI website using the Proteome Discoverer 1.4 software (Thermo, San Jose, Calif.) based on the SEQUEST algorithm. Carbamidomethylation (+57.021 Da) of cysteines was fixed modification, and Oxidation and Deamidation Q/N-deamidated (+0.98402 Da) were set as dynamic modifications. The minimum peptide length was specified to be five amino acids. […]

UL37: HSV-1 UL37 tegument protein, a protein deamidase; SEQ ID NO. 1
reduction of IFN-β secretion (IFN-β): ~75%
increase of the interaction between cGAS and ISD [1]: ~50%
intracellular cGAMP (cGAS [2]): ~35 ng per one million THP-1 cells
reduction of IFNB1 and ISG56 expression (cGAS [3]; THP-1 cells, HT-DNA transfection, UL37 expression): ~60%
effect on expression of IFNB1, ISG56 and CXCL10 induced by HT-DNA (cGAS [3]; THP-1 stable cell lines): potently reduced the expression of IFNB1, ISG56 and CXCL10
RIG-I deamidation in vitro (RIG-I): sufficient to reduce RIG-I charge
cGAS deamidation in vitro (2DGE shift) (cGAS [4]): shifted cGAS toward the positive end of the gel strip
effect of added UL37 on cGAS-mediated cGAMP production (cGAS [5]): greatly reduced cGAS-mediated cGAMP production
increase of deamidation of the four cGAS sites (cGAS [6]): 2-3 fold

From patent US10596234B2, “Compositions and methods to inhibit viral replication” (priority 2016, dated 2020)
